Measured values from patent EP0094564A2, “Azolyl-methyl oxiranes, their preparation and use as medicaments and plant protecting agents” (BASF Aktiengesellschaft, priority 1982, dated 1983).
Values after ≈ are worked out from the molar mass of the structure shown.

What was measured:
Pullularia pullulans = assay: Versuch 5: filter paper disc inhibition zone test on malt extract agar; format: cell-based; conditions: 72 h, discs soaked with 0,2 ml of 200 ppm solution, 3 days at 22 to 24 °C, read-out: Wirksamkeit gegen Pullularia pullulans
Description: Filtrierpäpierscheiben mit einem Durchmesser von 13 mm und einer Stärke von 1 mm werden mit 0,2 ml Lösungen getränkt, die jeweils 200 Teile Wirkstoff je Million Teile Lösung (ppm) enthalten. Die Scheiben werden dann auf einem 2 %igen Malzextraktagar in Petrischalen gelegt, die zuvor getrennt mit Sporen des holzverfärbenden Pilzes Pullularia pullulans beimpft wurden. Anschließend werden die Schalen 3 Tage lang bei 22 bis 24 °C bebrütet. Nach dieser Zeit hat sich der Pilz in den Kontrollschalen sehr gut entwickelt.
Die fungizide Wirksamkeit der Wirkstoffe wird anhand der um die Filtrierpapierscheiben herum entstandenen pilzfreien Zonen (Hemmhöfe) wie folgt beurteilt: […]

Chaetomium globosum = assay: Versuch 6: fungal growth on malt extract agar containing active ingredient; format: cell-based; parameters: key: 0 = kein Pilzwachstum (Pilzmyzel abgetötet); 1 = geringes Pilzwachstum (bis 1/3 der Agaroberfläche bewachsen); 3 = mittleres Pilzwachstum (bis 2/3 der Agaroberfläche bewachsen); 5 = ungehemmtes Pilzwachstum (gesamte Agaroberfläche bewachsen); conditions: 40 ppm in 5 % malt extract agar; 5 days at 25 °C; growth score
From the text: (§1) Die Wirkstoffe werden in Aceton gelöst, in Mengen von 40 ppm einem verflüssigten 5 %igen Malzextraktagar zugesetzt. Der Agar wird in Petrischalen ausgegossen und nach dem Erstarren werden die fungizidhaltigen Nähragarplatten zentral mit Myzel der holzzerstörenden Pilze Coniophora puteana und Trametes versicolor, des Moderfäule und Stockflecken verursachenden Pilzes Chaetomium globosum sowie mit Sporen des grünen Holzschimmels Trichoderma viride beimpft.
(§2) Nach fünftägiger Bebrütung der Schalen bei 25 °C wird die Entwicklung der Pilzkolonien auf dem Nährboden im Vergleich mit der Kontrolle (ohne Wirkstoff-Zusatz) beurteilt: • 0 = kein Pilzwachstum (Pilzmyzel abgetötet) • 1 = geringes Pilzwachstum (bis 1/3 der Agaroberfläche bewachsen) • 3 = mittleres Pilzwachstum (bis 2/3 der Agaroberfläche bewachsen) • 5 = ungehemmtes Pilzwachstum (gesamte Agaroberfläche bewachsen)

Coniophora puteana = assay: as above; format: cell-based; parameters: key: 0 = kein Pilzwachstum (Pilzmyzel abgetötet); 1 = geringes Pilzwachstum (bis 1/3 der Agaroberfläche bewachsen); 3 = mittleres Pilzwachstum (bis 2/3 der Agaroberfläche bewachsen); 5 = ungehemmtes Pilzwachstum (gesamte Agaroberfläche bewachsen); conditions: 40 ppm in 5 % malt extract agar; 5 days at 25 °C; growth score
From the text: as §1, §2

Trametes versicolor = assay: as above; format: cell-based; parameters: key: 0 = kein Pilzwachstum (Pilzmyzel abgetötet); 1 = geringes Pilzwachstum (bis 1/3 der Agaroberfläche bewachsen); 3 = mittleres Pilzwachstum (bis 2/3 der Agaroberfläche bewachsen); 5 = ungehemmtes Pilzwachstum (gesamte Agaroberfläche bewachsen); conditions: 40 ppm in 5 % malt extract agar; 5 days at 25 °C; growth score
From the text: as §1, §2

Trichoderma viride = assay: as above; format: cell-based; parameters: key: 0 = kein Pilzwachstum (Pilzmyzel abgetötet); 1 = geringes Pilzwachstum (bis 1/3 der Agaroberfläche bewachsen); 3 = mittleres Pilzwachstum (bis 2/3 der Agaroberfläche bewachsen); 5 = ungehemmtes Pilzwachstum (gesamte Agaroberfläche bewachsen); conditions: 40 ppm in 5 % malt extract agar; 5 days at 25 °C; growth score
From the text: as §1, §2

Abs. corym. 1 = assay: Agar dilution test, minimal inhibitory concentration in vitro; format: cell-based; conditions: read-out: Minimale Hemmkonzentration (MHK) Abs. corym. 1
From the text: (§3) Die Wirkung gegen Dermatophyten, Bakterien und Protozonen kann nach Methoden, wie sie beispielsweise in P. Klein, Bakteriologische Grundlagen der chemotherapeutischen Laboratoriumspraxis, Springer-Verlag Berlin, 1957, beschrieben wird, aufgezeigt werden. Die überraschende Wirkung gegenüber Hefen wurde im Pseudomyzel- und Myzelphasentest mit Candida albicans nachgewiesen (vgl. DE-OS 30 10 093). Es wurde geprüft, welche minimalen Hemmkonzentrationen (MHK-Werte) im Agardilutionstest erreicht werden. In der Tabelle 1 sind die Ergebnisse zusammengefaßt.

Aps.fum. 2 = assay: as above; format: cell-based; conditions: read-out: Minimale Hemmkonzentration (MHK) Aps.fum. 2
From the text: as §3

E.coli muta-flor = assay: as above; format: cell-based; conditions: Escherichia coli, read-out: Minimale Hemmkonzentration (MHK) E.coli muta-flor
From the text: as §3

Epid. flocc. 157 = assay: as above; format: cell-based; conditions: read-out: Minimale Hemmkonzentration (MHK) Epid. flocc. 157
From the text: as §3

Microsp. ferrug. 5 = assay: as above; format: cell-based; conditions: read-out: Minimale Hemmkonzentration (MHK) Microsp. ferrug. 5
From the text: as §3

Mucor pus. 6 = assay: as above; format: cell-based; conditions: read-out: Minimale Hemmkonzentration (MHK) Mucor pus. 6
From the text: as §3

Staph. aur. SG 511 = assay: as above; format: cell-based; conditions: read-out: Minimale Hemmkonzentration (MHK) Staph. aur. SG 511
From the text: as §3

Strept. faec. 8043 = assay: as above; format: cell-based; conditions: read-out: Minimale Hemmkonzentration (MHK) Strept. faec. 8043
From the text: as §3

Trichoph. ment. 21 = assay: as above; format: cell-based; conditions: read-out: Minimale Hemmkonzentration (MHK) Trichoph. ment. 21
From the text: as §3

Cand.alb. H = assay: Candida albicans pseudomycelium/mycelium phase test, MIC; format: cell-based; conditions: in vitro, column H, read-out: Minimale Hemmkonzentration (MHK) Cand.alb. H
From the text: as §3

Cand.alb. M = assay: Candida albicans pseudomycelium/mycelium phase test, MIC (column M); format: cell-based; conditions: in vitro, read-out: Minimale Hemmkonzentration (MHK) Cand.alb. M
From the text: as §3

Entamoeb hist. = assay: Minimal inhibitory concentration in vitro (protozoa); format: cell-based; conditions: read-out: Minimale Hemmkonzentration (MHK) Entamoeb hist.
From the text: as §3

Trichom. vag. = assay: as above; format: cell-based; conditions: read-out: Minimale Hemmkonzentration (MHK) Trichom. vag.
From the text: as §3

[1] = system: Weizenbraunrost (Puccinia recondita); assay: Versuch 2: activity against wheat brown rust on wheat seedlings; format: in vivo; conditions: 0,025; 0,006; 0,0015 %ige Spritzbrühen; sprayed 24 h after inoculation; assessed after 8 days; value given as 'beispielsweise'
Description: Blätter von in Töpfen gewachsenen Weizensämlingen der Sorte "Jubilar" wurden mit Sporen des Braunrostes (Puccinia recondita) bestäubt. Danach wurden die Töpfe für 24 Stunden bei 20 bis 22°C in eine Kammer mit hoher Luftfeuchtigkeit (90 bis 95 %) gestellt. Während dieser Zeit keimten die Sporen aus und die Keimschläuche drangen in das Blattgewebe ein. Die infizierten Pflanzen wurden anschließend mit wäßrigen Spritzbrühen, die 80 % Wirkstoff und 20 % Emulgiermittel in der Trockensubstanz enthielten, tropfnaß gespritzt. Nach dem Antrocknen des Spritzbelages wurden die Versuchspflanzen im Gewächshaus bei Temperaturen zwischen 20 und 22°C und 65 bis 70 % relativer Luftfeuchte aufgestellt. Nach 8 Tagen wurde das Ausmaß der Rostpilzentwicklung auf den Blättern ermittelt.

Botrytis cinerea = assay: Versuch 4: activity against Botrytis cinerea on paprika seedlings; format: in vivo; conditions: 0,05 %ige Spritzbrühe; sprayed before inoculation; assessed after 5 days; value given as 'beispielsweise'
From the text: Paprikasämlinge der Sorte "Neusiedler Ideal Elite" wurden, nachdem sich 4 bis 5 Blätter gut entwickelt hatten, mit wäßrigen Suspensionen, die 80 % Wirkstoff und 20 % Emulgiermittel in der Trockensubstanz enthielten, tropfnaß gespritzt. Nach dem Antrocknen des Spritzbelages wurden die Pflanzen mit einer Konidienaufschwemmung des Pilzes Botrytis cenerea besprüht und bei 22 bis 24 C in eine Kammer mit hoher Luftfeuchtigkeit gestellt. Nach 5 Tagen hatte sich die Krankheit auf den unbehandelten Kontrollpflanzen so stark entwickelt, daß die entstandenen Blattnekrosen den überwiegenden Teil der Blätter bedeckten.

[2] = system: Weizenmehltau (Erysiphe graminis var. tritici); assay: Versuch 1: activity against wheat powdery mildew on wheat seedlings; format: in vivo; conditions: 0,025; 0,006; 0,0015 %ige Spritzbrühen; sprayed 24 h before inoculation; assessed after 7 days; value given as 'beispielsweise'
Description: Blätter von in Töpfen gewachsenen Weizenkeimlingen der Sorte "Jubilar" wurden mit wäßriger Spritzbrühe, die 80 % (Gew.%) Wirkstoff und 20 % Emulgiermittel in der Trockensubstanz enthielt, besprüht und 24 Stunden nach dem Antrocknen des Spritzbelages mit Oidien (Sporen) des Weizenmehltaus (Erysiphe graminis var. tritici) bestäubt. Die Versuchspflanzen wurden anschließend im Gewächshaus bei Temperaturen zwischen 20 und 22 °C und 75 bis 80 % relativer Luftfeuchtigkeit aufgestellt. Nach 7 Tagen wurde das Ausmaß der Mehltauentwicklung ermittelt.

[3] = system: Gurkenmehltau (Erysiphe cichoracearum); assay: Versuch 3: activity against cucumber powdery mildew on cucumber seedlings; format: in vivo; conditions: 0,025 %ige Spritzbrühe; sprayed about 20 h after inoculation; assessed after 21 days; value given as 'beispielsweise'
From the text: Blätter von in Töpfen gewachsenen Gurkenkeimlingen der Sorte "Chinesische Schlange" wurden im Zweiblattstadium mit einer Sporensuspension des Gurkenmehltaus (Erysiphe cichoracearum) besprüht. Nach etwa 20 Stunden wurden die Versuchspflanzen mit wäßriger Spritzbrühe, die 80 % Wirkstoff und 20 % Emulgiermittel in der Trockensubstanz enthielt, bis zur Tropfnässe besprüht. Nach dem Antrocknen des J Spritzbelages wurden sie anschließend im Gewächshaus bei Temperaturen zwischen 20 und 22^00 und 70 bis 80 % relativer Luftfeuchtigkeit aufgestellt. Zur Beurteilung der Wirksamkeit der neuen Stoffe wurde das Ausmaß der Pilzentwicklung nach 21 Tagen beurteilt.

Row | Structure (SMILES) | zone of inhibition at 200 ppm (Pullularia pullulans) [mm] | Wirksamkeit gegen Chaetomium globosum (Chaetomium globosum) | Wirksamkeit gegen Coniophora puteana (Coniophora puteana) | Wirksamkeit gegen Trametes versicolor (Trametes versicolor) | Wirksamkeit gegen Trichoderma viride (Trichoderma viride) | fungizide Wirkung gegen Weizenbraunrost [1] [%] | fungizide Wirkung gegen Botrytis cinerea an Paprika (Botrytis cinerea) [%] | further results
1 | CC1(Cn2cncn2)OC1c1ccc(Cl)cc1Cl (single isomer, unassigned) [Beispiel 22] | > 6 | 1 | 1 | 0 | 1 |  |  | 
2 | COc1cccc(C2OC2(Cn2cncn2)c2ccc(Cl)cc2)c1 (single isomer, unassigned) [Beispiel 30] |  |  |  |  |  | 100 | 97 | MIC (Abs. corym. 1): 16 µg/mL (≈ 46.8 µM); MIC (Aps.fum. 2): > 128 µg/mL; MIC (E.coli muta-flor): > 128 µg/mL; MIC (Epid. flocc. 157): 8 µg/mL (≈ 23.4 µM); MIC (Microsp. ferrug. 5): 2 µg/mL (≈ 5.85 µM); MIC (Mucor pus. 6): 8 µg/mL (≈ 23.4 µM); MIC (Staph. aur. SG 511): > 128 µg/mL; MIC (Strept. faec. 8043): > 128 µg/mL; MIC (Trichoph. ment. 21): 8 µg/mL (≈ 23.4 µM); MIC (Cand.alb. H): 64 µg/mL (≈ 187 µM); MIC (Cand.alb. M): 2 µg/mL (≈ 5.85 µM); MIC (Entamoeb hist.): > 1 µg/mL; MIC (Trichom. vag.): > 16 µg/mL
3 | Clc1ccc(C2OC2(Cn2cncn2)c2ccc(-c3ccccc3)cc2)cc1 (single isomer, unassigned) [Beispiel 42] | > 6 | 0 | 0 | 0 | 0 | 100 | 97 | fungizide Wirkung gegen Weizenmehltau [2]: 100%; fungizide Wirkung gegen Gurkenmehltau [3]: 100%
4 | Fc1ccc(C2OC2(Cn2cncn2)c2ccc(Cl)cc2)cc1 (single isomer, unassigned) [Beispiel 50] | > 6 | 0 | 0 | 0 | 0 |  |  | 
